Experimental data from patent publication US9730970B2, “Seaweed extracts, unsaturated aldehydes, and methods of treatment” (University of Florida Research Foundation, Inc., priority 2013, dated 2017).

Test system: NQO1
Assay: qPCR of NQO1 transcription in IMR-32 cells
Assay type: cell-based, human
Method: IMR-32 cells (1×10^6 cells/well) were seeded in 6-well plates one day before treatment. Cells were treated with variable concentrations of purified compounds 1-4 for 12 h. Total RNA was extracted with the RNeasy Mini Kit (Qiagen). cDNA was synthesized from 2 μg of total RNA by using SuperScript II Reverse Transcriptase (Invitrogen) and Oligo(dT)12-18 primer (Invitrogen). Real-time PCR was performed in triplicate using GAPDH expression as internal control for normalization.

| SMILES | activation of NQO1 transcription (20 μg/mL, 12 h) [fold] | activation of NQO1 transcription (positive control under identical conditions) [fold] |
| --- | --- | --- |
| CCC(Cl)C(O)C(O)/C=C/C=C/C=O (centres unmarked) [Compound 4, 8-chloro-6,7-dihydroxydeca-2,4-dienal] | 6.4 |  |
| CC(C)(C)c1cc(O)ccc1O [tBHQ, Tert-butylhydroquinone] |  | 5.9 |
